One assay concerns the target Beta-galactosidase (Escherichia coli, UniProt Q8VNN2). In words: PubChem AID 485352. The assay is classed as functional.
Assay [1] has as its system BJ. In words: cells. The format is functional, cell-based. As to conditions: Homo sapiens.
Assay [2] deals with T1, Type-1 angiotensin II receptor (Homo sapiens, UniProt P30556).
T1 sequence (P30556 whole entry): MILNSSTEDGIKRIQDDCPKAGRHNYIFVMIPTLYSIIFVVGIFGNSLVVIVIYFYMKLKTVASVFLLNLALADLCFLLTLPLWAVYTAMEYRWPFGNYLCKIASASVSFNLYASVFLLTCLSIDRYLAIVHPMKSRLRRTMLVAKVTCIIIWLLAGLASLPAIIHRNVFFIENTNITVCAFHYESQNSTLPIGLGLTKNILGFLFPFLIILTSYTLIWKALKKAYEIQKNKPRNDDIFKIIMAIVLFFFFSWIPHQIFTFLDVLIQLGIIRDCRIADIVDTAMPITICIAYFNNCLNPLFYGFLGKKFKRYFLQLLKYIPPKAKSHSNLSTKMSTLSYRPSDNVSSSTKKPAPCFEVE
Briefly: antagonism of angiotensin II type 1 receptor – cell-based, uHTS hits, selectivity assay for APJ receptor antagonist project, dose response (AID 463214).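 Note: antagonist potency against angiotensin II stimulated AT1 response.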 The format is functional.

Assay [3] relates to Streptococcus sp. 'group A'. Briefly: Streptococcus pyogenes SK(-)GAS viability under kanamycin – luminescence, BacTiterGlo, confirmation, counter-screen for streptokinase expression inhibitor project, dose response (AID 1900). The format is functional, organism-based. (Counterscreens check selectivity or assay interference.)
The test system of assay [4] is BJ. In words: BJ-TERT-LT-ST fibroblast viability loss – cell-based, RAS-independent, luminescence, dose response (AID 1935).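 Note: BJ fibroblasts immortalized with TERT plus LT and ST oncogenes.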 The assay is classed as functional. As to conditions: Homo sapiens.
A short description of assay [5]: DRD fibroblast viability loss – cell-based, non-viral oncogenic, luminescence, dose response (AID 1934). The assay is classed as functional. To be noted: Homo sapiens.
The subject of assay [6] is BJ. Briefly: BJ-TERT fibroblast viability loss – cell-based, RAS-independent, luminescence, dose response (AID 1933). The format is functional. As to conditions: Homo sapiens.
Assay [7] has as its target Heat shock protein HSP 90-alpha (Homo sapiens, UniProt P07900). The format is functional, organism-based.
The subject of another assay is Streptococcus. Briefly: GAS UMAA2166 growth inhibition – luminescence, BacTiterGlo, counter-screen for streptokinase expression inhibitor project, dose response (AID 1915).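 Note: potency for reduction of bacterial viability or growth.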 The assay is classed as functional, organism-based.
Assay [8] has as its target T2, Carboxy-terminal domain RNA polymerase II polypeptide A small phosphatase 1 (Homo sapiens, UniProt Q9GZU7).
T2 sequence (Q9GZU7 whole entry): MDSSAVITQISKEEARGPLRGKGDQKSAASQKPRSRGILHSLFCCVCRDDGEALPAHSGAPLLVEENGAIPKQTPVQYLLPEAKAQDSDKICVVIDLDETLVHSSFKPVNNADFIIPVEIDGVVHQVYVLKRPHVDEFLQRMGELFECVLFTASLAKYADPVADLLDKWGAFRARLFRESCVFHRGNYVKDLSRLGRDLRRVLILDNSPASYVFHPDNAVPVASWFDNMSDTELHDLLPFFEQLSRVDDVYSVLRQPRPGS
In words: CTDSP1 inhibitors, concentration-response, biochemical, absorbance readout, ultra-high-throughput screen actives (AID 540297). The format is functional.

Assay [9] concerns the target T3, Fatty acid synthase (Homo sapiens, UniProt P49327). In words: inhibition of human FAS-TE enzyme activity – biochemical, endpoint fluorescence intensity, uHTS hits, dose response (AID 624327).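 Note: fluorescence from hydrolysis of an O-methyl fluorescein acyl ester substrate by the enzyme.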 The assay is classed as functional.
The target in assay [10] is T3, Fatty acid synthase. Briefly: inhibition of human FAS-TE enzyme activity – biochemical, kinetic fluorescence intensity, dose response (AID 624326).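 Note: rate of fluorescence rise from hydrolysis of a fluorogenic O-methyl fluorescein ester substrate.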 The assay is classed as functional.

The source made the active and inactive calls. Cut-off read from the data, not from the text of the source, for most assays here: actives have a measured EC50 and inactives only a lower limit.

Sequence of Beta-galactosidase (Q8VNN2 whole entry): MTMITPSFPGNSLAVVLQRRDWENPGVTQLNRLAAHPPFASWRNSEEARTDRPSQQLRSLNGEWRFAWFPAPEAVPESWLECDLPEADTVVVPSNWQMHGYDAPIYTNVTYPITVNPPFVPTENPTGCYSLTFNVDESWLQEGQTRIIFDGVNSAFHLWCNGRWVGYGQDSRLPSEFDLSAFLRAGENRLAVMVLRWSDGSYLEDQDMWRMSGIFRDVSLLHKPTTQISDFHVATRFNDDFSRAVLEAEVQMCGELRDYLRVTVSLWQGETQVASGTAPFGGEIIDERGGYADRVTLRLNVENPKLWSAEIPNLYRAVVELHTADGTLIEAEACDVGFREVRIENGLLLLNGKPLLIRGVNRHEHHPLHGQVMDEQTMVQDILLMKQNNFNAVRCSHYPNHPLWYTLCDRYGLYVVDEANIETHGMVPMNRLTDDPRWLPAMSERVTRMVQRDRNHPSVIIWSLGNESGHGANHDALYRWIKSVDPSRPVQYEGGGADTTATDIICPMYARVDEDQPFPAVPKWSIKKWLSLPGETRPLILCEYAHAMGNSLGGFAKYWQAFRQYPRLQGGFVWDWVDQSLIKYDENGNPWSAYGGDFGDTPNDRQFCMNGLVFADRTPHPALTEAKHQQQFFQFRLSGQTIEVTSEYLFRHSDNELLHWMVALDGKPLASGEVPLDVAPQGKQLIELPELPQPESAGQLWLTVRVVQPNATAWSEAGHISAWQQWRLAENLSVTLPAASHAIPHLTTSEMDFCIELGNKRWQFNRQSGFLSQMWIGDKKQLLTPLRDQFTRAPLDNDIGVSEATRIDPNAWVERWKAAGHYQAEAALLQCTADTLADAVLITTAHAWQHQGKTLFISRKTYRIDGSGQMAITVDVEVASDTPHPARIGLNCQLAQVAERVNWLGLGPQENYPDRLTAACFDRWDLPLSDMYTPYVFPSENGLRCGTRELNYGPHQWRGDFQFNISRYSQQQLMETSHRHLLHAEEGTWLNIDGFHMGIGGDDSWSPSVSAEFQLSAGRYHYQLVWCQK
T3 sequence (P49327 whole entry): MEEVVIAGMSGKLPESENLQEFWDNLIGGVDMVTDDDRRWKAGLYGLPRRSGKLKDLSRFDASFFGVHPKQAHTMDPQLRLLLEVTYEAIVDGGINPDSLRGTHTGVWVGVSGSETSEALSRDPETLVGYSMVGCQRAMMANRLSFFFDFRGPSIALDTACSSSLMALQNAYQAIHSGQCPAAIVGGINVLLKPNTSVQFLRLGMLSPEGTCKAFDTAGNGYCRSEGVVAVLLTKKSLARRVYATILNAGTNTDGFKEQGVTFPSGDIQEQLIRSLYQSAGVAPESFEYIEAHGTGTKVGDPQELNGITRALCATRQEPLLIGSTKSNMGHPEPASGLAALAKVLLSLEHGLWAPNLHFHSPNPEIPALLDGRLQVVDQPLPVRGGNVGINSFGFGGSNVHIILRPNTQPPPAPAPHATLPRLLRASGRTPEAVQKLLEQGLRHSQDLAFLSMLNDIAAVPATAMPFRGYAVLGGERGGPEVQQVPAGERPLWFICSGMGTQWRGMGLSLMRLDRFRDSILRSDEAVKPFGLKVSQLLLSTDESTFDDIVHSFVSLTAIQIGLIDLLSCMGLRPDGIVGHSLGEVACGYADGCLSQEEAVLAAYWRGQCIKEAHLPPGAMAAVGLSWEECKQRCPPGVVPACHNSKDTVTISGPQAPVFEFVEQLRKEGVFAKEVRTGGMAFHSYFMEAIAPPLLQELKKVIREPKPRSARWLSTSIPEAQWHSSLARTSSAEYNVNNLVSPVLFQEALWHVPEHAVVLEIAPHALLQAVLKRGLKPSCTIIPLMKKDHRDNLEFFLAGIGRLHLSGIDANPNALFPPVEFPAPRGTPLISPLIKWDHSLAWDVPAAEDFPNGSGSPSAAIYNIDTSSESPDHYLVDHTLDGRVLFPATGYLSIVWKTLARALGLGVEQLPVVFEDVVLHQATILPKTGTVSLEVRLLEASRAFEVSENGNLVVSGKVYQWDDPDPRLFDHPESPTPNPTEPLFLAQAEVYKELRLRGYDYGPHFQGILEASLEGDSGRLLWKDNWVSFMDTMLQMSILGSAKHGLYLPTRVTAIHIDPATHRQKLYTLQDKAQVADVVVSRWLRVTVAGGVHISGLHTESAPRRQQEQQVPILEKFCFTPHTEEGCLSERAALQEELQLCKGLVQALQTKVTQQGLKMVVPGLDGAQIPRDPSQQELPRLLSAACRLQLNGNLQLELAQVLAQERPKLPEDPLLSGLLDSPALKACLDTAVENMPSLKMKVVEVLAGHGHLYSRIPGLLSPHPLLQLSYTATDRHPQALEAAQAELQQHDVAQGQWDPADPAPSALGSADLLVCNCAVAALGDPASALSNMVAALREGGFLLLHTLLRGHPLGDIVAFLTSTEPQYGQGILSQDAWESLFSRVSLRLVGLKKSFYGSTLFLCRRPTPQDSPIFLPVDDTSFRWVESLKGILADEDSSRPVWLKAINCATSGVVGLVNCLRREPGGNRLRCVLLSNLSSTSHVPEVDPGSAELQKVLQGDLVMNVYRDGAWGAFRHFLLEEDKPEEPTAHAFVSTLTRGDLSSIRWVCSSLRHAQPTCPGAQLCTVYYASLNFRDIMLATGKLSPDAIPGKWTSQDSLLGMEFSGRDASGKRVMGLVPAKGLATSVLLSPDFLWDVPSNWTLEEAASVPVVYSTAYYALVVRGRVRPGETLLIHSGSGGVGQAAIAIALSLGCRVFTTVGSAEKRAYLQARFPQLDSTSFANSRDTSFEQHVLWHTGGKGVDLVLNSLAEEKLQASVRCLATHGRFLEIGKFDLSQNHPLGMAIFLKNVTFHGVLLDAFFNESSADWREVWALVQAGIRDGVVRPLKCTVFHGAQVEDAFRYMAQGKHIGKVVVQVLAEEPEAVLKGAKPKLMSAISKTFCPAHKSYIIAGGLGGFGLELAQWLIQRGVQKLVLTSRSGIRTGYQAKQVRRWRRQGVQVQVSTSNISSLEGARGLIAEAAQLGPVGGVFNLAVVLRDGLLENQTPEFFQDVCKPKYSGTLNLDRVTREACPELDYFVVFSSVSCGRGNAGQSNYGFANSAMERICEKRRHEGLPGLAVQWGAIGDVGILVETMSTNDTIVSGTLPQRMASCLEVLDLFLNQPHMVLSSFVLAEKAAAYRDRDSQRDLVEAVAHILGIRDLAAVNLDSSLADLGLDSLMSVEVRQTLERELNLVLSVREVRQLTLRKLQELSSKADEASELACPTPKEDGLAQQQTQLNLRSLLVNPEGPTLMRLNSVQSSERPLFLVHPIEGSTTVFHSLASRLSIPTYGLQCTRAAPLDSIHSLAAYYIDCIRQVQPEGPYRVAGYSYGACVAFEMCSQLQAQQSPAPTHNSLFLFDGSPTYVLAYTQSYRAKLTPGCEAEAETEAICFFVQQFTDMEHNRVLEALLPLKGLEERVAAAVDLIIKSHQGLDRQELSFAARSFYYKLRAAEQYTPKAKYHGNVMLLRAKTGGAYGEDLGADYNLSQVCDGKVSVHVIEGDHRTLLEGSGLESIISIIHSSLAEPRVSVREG

A word on the EC50: it is the midpoint of the concentration-response curve. As a reminder, the IC50 is the concentration needed to halve the response being measured. As a reminder, the AC50 is the midpoint of the concentration-response curve, whichever way the signal moves. On to `Oc1cccc2ccc(/C=C/c3ccccc3Cl)nc12`, for which the EC50 on Beta-galactosidase is > 40 µM (inactive); with BJ [1], 28.5 µM (active); in assay [3] it was 0.345 µM (active); in the assay on BJ [4], > 150 µM (inconclusive); in [5] it was 32.6 µM (active); in the assay on BJ [6] it was 12.9 µM (active). Also, the EC50 in the assay on Streptococcus is 1.3 µM (active). Further, in [2], the half-inhibitory concentration (IC50) is 32.3 µM (not active). For the same compound, the AC50 in assay [7] was 11.6 µM (active).

Consider `O=C(CCCC(=O)Nc1cccc(Br)c1)N/N=C/c1cc([N+](=O)[O-])ccc1O`, for which the EC50 on Beta-galactosidase is > 40 µM (inactive). The IC50 is 6.26 µM (active) in [8], > 40 µM (not active) in assay [2], 10 µM (active) at Fatty acid synthase [9] and 7.42 µM (active) at Fatty acid synthase [10].

(Values after ChEMBL document CHEMBL1201862, “PubChem BioAssay data set” (2004).)
